Laboratory results from paper PMC7534258, “Novel temporin L antimicrobial peptides: promoting self-assembling by lipidic tags to tackle superbugs” (Journal of Enzyme Inhibition and Medicinal Chemistry, 2020).
Entries after “also recorded” stand apart in the source; their conditions may differ. Like-named read-outs stand apart in the source and are kept apart here. Where a SMILES comes first, the peptide text is derived from it. [ ]: non-standard residue; d: D form. The star is where a group is joined. Phe(4-NH2) = Nc1ccc(C[C@H](N)C(=O)O)cc1; Pentanoyl = CCCCC(=O)*

What was measured:
[1] = test system: Pa1; experiment: microbe, parasite or virus in culture; conditions: multidrug resistant clinical isolate
Procedure: (§1) Clinical strains of P. aeruginosa (Pa1, Pa2 and Pa3), K. pneumoniae (KpCR1, KpCR2 and KpCR3), and S. aureus (Sa1, Sa2 and Sa3) were isolated from bloodstream or pulmonary infections, and belong to a collection of bacterial strains established between 2010 and 2018 at the Department of Molecular Medicine and Medical Biotechnologies (University Federico II, Naples) for research use.
(§2) Identification was performed by sub-culturing on Tryptic Soy Agar (TSA, Becton Dickinson) and by biochemical characterisation using the Vitek II system (Biomerieux). The antimicrobial susceptibility testing of all isolates was determined using Vitek II system and results were interpreted according to European Committee on Antimicrobial Susceptibility Testing (EUCAST version 9.0, 2019). P. aeruginosa was cultured in Brain Heart Infusion broth (BHI, OXOID), S. aureus and K. pneumoniae were cultured in Tryptic Soya broth (TSB, OXOID), under aerobic conditions at 37 °C, for 24 h on an orbital shaker at 200 rpm.
(§3) Minimal inhibitory concentrations (MIC) of all the peptides were determined in Mueller–Hinton medium by the broth microdilution assay, following the procedure already described[22]^,[34]. The compounds were added to bacterial suspension in each well yielding a final cell concentration of 1 × 10^6 CFU/ml and a final compound concentration ranging from 0.78 to 100 µM. Negative control wells were set to contain bacteria in Mueller–Hinton broth plus the amount of vehicle (ethanol) used to dilute each compound. Positive controls included vancomycin (2 µg/ml), tobramycin (4 µg/ml), gentamycin (4 µg/ml), and imipenem (8 µg/ml).

[2] = test system: Sa1; experiment: microbe, parasite or virus in culture
Procedure: as §1, §2, §3

[3] = test system: KpCR1; experiment: microbe, parasite or virus in culture; conditions: carbapenem-resistant clinical isolate
Procedure: as §1, §2, §3

[4] = test system: KpCR3; experiment: microbe, parasite or virus in culture; conditions: carbapenem-resistant clinical isolate
Procedure: as §1, §2, §3

[5] = test system: Pa3; experiment: microbe, parasite or virus in culture; conditions: multidrug resistant clinical isolate
Procedure: as §1, §2, §3

[6] = test system: Sa2; experiment: microbe, parasite or virus in culture
Procedure: as §1, §2, §3

[7] = test system: Pa2; experiment: microbe, parasite or virus in culture; conditions: multidrug resistant clinical isolate
Procedure: as §1, §2, §3

[8] = test system: KpCR2; experiment: microbe, parasite or virus in culture; conditions: carbapenem-resistant clinical isolate
Procedure: as §1, §2, §3

[9] = test system: Sa3; experiment: microbe, parasite or virus in culture; conditions: 24 h
Procedure: as §1, §2, §3

[10] = Critical aggregation concentration, Nile red fluorescence; assay type: physicochemical; conditions: aqueous solution, pH 7, Nile red, 1–200 µM peptide
Procedure: The solvatochromic fluorescent probe Nile red is widely used to determine the CAC of self-assembling peptides. […] Since Nile red is poorly soluble in water, there is a large preference to partition aggregates, which offer hydrophobic binding sites. Initially, 1 mM methanolic Nile red was prepared. Then, the methanolic Nile red was diluted with water in order to have a final concentration of 500 nM (solution A). The peptides 1B, 2B, 3B, C, were prepared as follows[39]: peptide stock solutions (0.4 mM) were prepared by dissolving the single peptides in water (1B, C) or tetrahydrofuran (3B, 2B) and sonicating for 15 min. Different aliquots were taken to prepare solutions of each peptide at different concentrations (1, 5, 10, 15, 20, 30, 50, 100 and 200 µM). Then, all solutions were diluted with water, sonicated for 15 min and freeze-dried. Finally, the peptide powders were dissolved with the right volume of solution A and allowed to stand in the dark place for 1 h before measurement. Emission spectra for each solution were measured by a Cary Eclipse Varian spectrometer. Spectra were taken between 570 and 700 nm at a slit width of 5 nm, using an excitation wavelength of 550 nm and a 10 nm slit width. The measurements were performed in triplicate. The data were analysed by plotting the maximum emission fluorescence corresponding wavelength (y) as a function of peptide concentration (x) and fitting with the sigmoidal Boltzmann equation: y=A1+A2/1+e^(x−x0/Δx)+A2 where the variables A1 and A2 correspond to the upper and lower limits of the sigmoid, x0 is the inflection point of the sigmoid and Δx is the parameter, which characterises the steepness of the function. The sigmoidal plot allows calculating the CAC value at x0.

[11] = test system: HaCaT cells; conditions: 24 h, at 25.0 µM
Procedure: The human immortalised keratinocytes HaCaT cells (AddexBio, San Diego, CA, USA) were cultured in Dulbecco’s modified Eagle’s medium containing 4 mM glutamine (DMEMg), supplemented with 10% heat-inactivated foetal bovine serum (FBS) and 0.1 mg/ml of penicillin and streptomycin, at 37 °C and 5% CO2, in 25 cm^2 or 75 cm^2 flasks[33].
The colorimetric MTT assay was carried out to measure cellular metabolic activity in terms of cell viability[33]^,[36]. Viable cells are able to reduce, by active mitochondrial dehydrogenases, the yellow salt MTT to purple formazan crystals. Briefly, 4 × 10^4 HaCaT cells, suspended in DMEMg supplemented with 2% FBS, were plated in each well of a 96-well microtiter plate. After overnight incubation, at 37 °C in a 5% CO2 atmosphere, keratinocytes were treated for 24 h with fresh serum-free medium containing the peptides 3B and C at concentrations ranging from 3.12 µM to 25 µM. Afterward, the culture medium was replaced with Hank’s buffer supplemented with 0.5 mg/ml MTT and the plate was incubated at 37 °C and 5% CO2 for 4 h. At the end, acidified isopropanol was employed to dissolve the formazan crystals. Cell viability was calculated, with respect to cells not treated with peptide, by absorbance measurements at 570 nm using a microplate reader (Infinite M200; Tecan, Salzburg, Austria)[33]. […]

[12] = test system: HaCaT cells; conditions: at 25.0 µM, ref Merlino et al. [22]; cited from earlier work

SMILES	Antimicrobial activity (MIC) Pa1 [1]	Antimicrobial activity (MIC) Sa1 ([2]; 24 h)	Antimicrobial activity (MIC) KpCR1 [3]	Antimicrobial activity (MIC) KpCR3 [4]	Antimicrobial activity (MIC) Pa3 [5]	Antimicrobial activity (MIC) Sa2 ([6]; 24 h)	Antimicrobial activity (MIC) Pa2 [7]	Antimicrobial activity (MIC) KpCR2 [8]	Antimicrobial activity (MIC) Sa3 [9]	CAC (critical aggregation concentration) [10]	cytotoxicity [11]	Antimicrobial activity (MIC) Sa1 ([2]; MRSA clinical isolate)	Antimicrobial activity (MIC) Sa2 ([6]; MRSA clinical isolate)	cytotoxicity [12]
CCCCC(=O)Nc1ccc(C[C@H](N)C(=O)N[C@H](C(=O)N2CCC[C@H]2C(=O)N[C@@H](Cc2c[nH]c3ccccc23)C(=O)N[C@@H](Cc2ccccc2)C(=O)N[C@@H](CO)C(=O)N[C@@H](CCCCN)C(=O)N[C@@H](Cc2ccccc2)C(=O)N[C@H](CC(C)C)C(=O)N[C@H](CCCCN)C(=O)N[C@@H](CCCNC(=N)N)C(=O)N[C@H](C(=O)N[C@@H](CC(C)C)C(N)=O)[C@@H](C)CC)C(C)C)cc1 [C, H-Phe(4-NHCO(CH2)3CH3)-Val-Pro-Trp-Phe-Ser-Lys-Phe-DLeu-DLys-Arg-Ile- Leu-NH2] (H-[Phe(4-NH2)](Pentanoyl)VPWFSKF[dL][dK]RIL-NH2)	25 µM	12.5 µM	12.5 µM	12.5 µM	25 µM	12.5 µM	25 µM	12.5 µM	12.5 µM	39.5 µM	13.29%	–	–	–
CC[C@H](C)[C@H](NC(=O)[C@H](CCCNC(=N)N)NC(=O)[C@@H](CCCCN)NC(=O)[C@@H](CC(C)C)NC(=O)[C@H](Cc1ccccc1)NC(=O)[C@H](CCCCN)NC(=O)[C@H](CO)NC(=O)[C@H](Cc1ccccc1)NC(=O)[C@H](Cc1c[nH]c2ccccc12)NC(=O)[C@@H]1CCCN1C(=O)[C@@H](NC(=O)[C@@H](N)Cc1ccccc1)C(C)C)C(=O)N[C@@H](CC(C)C)C(N)=O [Compound 1B, H-Phe-Val-Pro-Trp-Phe-Ser-Lys-Phe-DLeu-DLys-Arg-Ile-Leu-NH2] (H-FVPWFSKF[dL][dK]RIL-NH2)	12.5 µM	–	12.5 µM	12.5 µM	12.5 µM	–	12.5 µM	12.5 µM	6.25 µM	unable to aggregate under the range of concentrations investigated; also recorded: not aggregated at the concentration tested	–	12.5 µM	12.5 µM	28.22%
